# Data as given in ChEMBL document CHEMBL1125257, “Dihydropyrimidine calcium channel blockers. 3. 3-Carbamoyl-4-aryl-1,2,3,4-tetrahydro-6-methyl-5-pyrimidinecarboxylic acid esters as orally effective antihypertensive agents” (J Med Chem, 1991).
# Test system: Rattus norvegicus
# Assay: Antihypertensive activity when administered orally to spontaneously hypertensive rats
# Assay type: functional, organism-based
row,Structure (SMILES),IC50 [nM]
1,CCOC(=O)C1=C(COCCN)NC(C)=C(C(=O)OC)C1c1ccccc1Cl (configuration not stated) [AMLODIPINE],2.5
2,COC(=O)C1=C(C)NC(C)=C(C(=O)OC)C1c1ccccc1[N+](=O)[O-] [NIFEDIPINE],2.5
